Measurements published in patent publication US20230210939A1, “CYCLIC PEPTIDE COMPOUNDS AND METHODS OF USE” (priority 2020, published 2023).
pIC50: −log10 of the molar value. Positions of bridges follow the written chain, without caps; N, C: chain ends. Non-standard residues stand in square brackets, D forms with d. Residues, ends and D or L forms follow the SMILES beside them. *: point of attachment. Picolinoyl = O=C(c1ccccn1)*; Aib = CC(C)(N)C(=O)O

Experiments:
[1] = tested on: TNF-α content in conditioned media of LPS-treated BV2 microglial cells; assay: In vitro TNF-α inhibitory activity in LPS-treated BV2 microglial cells; type: cell-based; conditions: compound 45 min before LPS, 24 h incubation, TNF-α in supernatant, read-out: IC50 for reducing LPS-induced TNF-α content by half
Description: To measure the efficacy of the biological activity of Compound 1, an in vitro assay was employed to measure TNF-α content in conditioned media of cells treated with lipopolysaccharide (LPS) and different concentrations of Compound 1. 1 mg of Compound 1 peptide compound was added to 3.333 mL of physiological saline to make a 189 μM peptide solution which is sterilized by filtration through a 0.22 μm membrane filter. For treatment of cells, threefold serial dilutions were made, yielding concentrations of 189, 63, 21, 7, 2.3, and 0.76 μM peptide solution.
BV2 cells were recovered and passaged more than 3 times. 1.2×10^6 BV2 microglial cells in good growth state and in the logarithmic growth phase were diluted to […] cells/mL with DMEM medium containing 10% FBS, and 400 μL of cell suspension was inoculated into each well of a 48-well cell culture plate. […]

[2] = tested on: TNF-α content in the blood of LPS-treated ICR mice; assay: In vivo TNF-α inhibitory activity in LPS-treated mice; conditions: ICR male mice, IV compound 30 min before IV LPS 5 μg/kg, blood collected 1.5 hours after LPS
Description: To measure the efficacy of the biological activity of Compound 1, an in vivo assay was employed to measure TNF-α content in the blood of whole mice treated with lipopolysaccharide (LPS) and different concentrations of Compound 1. 56 ICR male mice, 12-14 g, were acclimated to the animal facility for 7 days and were then randomized into 8 groups with 7 mice/group to receive doses of 0, 0.001, 0.003, 0.01, 0.03, 0.1, 0.3, and 1.0 mg/kg of compound. Each dose group received intravenous (IV) injection of different concentrations of Compound 1 peptide solution at a dosing volume of 10 mL/kg. 30 min later, IV LPS at a dose of 5 μg/kg and at a volume of 10 ml/kg was administered. 1.5 hours after administration of LPS, whole blood was collected from the orbit of ICR mice, centrifuged at 4000 rpm for 10 min, and the supernatant was collected and used for TNF-α content detection from each of the different Compound 1 doses. (TNF-α detection kit, Unitech biological item number: 70-EK282/3-96).

pIC50 [1]: ~5.99
SMILES: CC(C)CC1NC(=O)C(CC(C)C)NC(=O)C(CCCNC(=N)N)NC(=O)C(CCCCN)NC(=O)C(C)(C)NC(=O)C(CC(C)C)NC(=O)C(CCCCN)NC(=O)C(CCCNC(=N)N)NC(=O)C(CC(C)C)NC(=O)C(NC(=O)C(CO)NC(=O)C(C)NC(=O)c2ccccn2)CSSCC(C(N)=O)NC1=O (stereo not drawn) [Compound 1, picolinyl-Ala-Ser-cyclo[Cys-LRKL-Aib-KRLL-Cys]-NH2] (Picolinoyl-ASCLRKL[Aib]KRLLC-NH2; disulfide 3-13; configuration not given here)
ED50 (Effective Dose at which a 50% reduction in blood TNF-α content was found) [2]: 0.045 mg/kg
